Measurements: patent US20260250290A1 (BRISTOL-MYERS SQUIBB COMPANY, priority 2023, published 2026)
Counter-ions that a name gives are not always drawn.

Biological target: T1, full length SGK1 (Homo sapiens, UniProt O00141)
T1 construct: 125 μM full length SGK1 (Life Technologies Part #PR7358A); purchased Life Technologies PR7358A
T1 sequence (O00141 1-431): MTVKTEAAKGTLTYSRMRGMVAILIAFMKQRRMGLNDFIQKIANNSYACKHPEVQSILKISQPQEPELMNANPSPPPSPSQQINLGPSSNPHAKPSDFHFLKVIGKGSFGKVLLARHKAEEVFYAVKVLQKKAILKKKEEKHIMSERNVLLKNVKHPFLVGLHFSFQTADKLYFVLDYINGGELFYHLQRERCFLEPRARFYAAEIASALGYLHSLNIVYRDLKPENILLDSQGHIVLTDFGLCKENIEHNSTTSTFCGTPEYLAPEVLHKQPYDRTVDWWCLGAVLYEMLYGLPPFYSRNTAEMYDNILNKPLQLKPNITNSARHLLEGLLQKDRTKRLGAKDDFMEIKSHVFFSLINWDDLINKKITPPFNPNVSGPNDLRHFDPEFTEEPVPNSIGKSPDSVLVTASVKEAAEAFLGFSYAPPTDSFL
Assay: SGK1 inhibition Assay A (Caliper LabChip electrophoretic separation of fluorescent peptide substrate and phosphorylated product)
Format: biochemical
Conditions: Assay A; 20 μM ATP, 40 min incubation; read-out: SGK1 IC50

Row | IC50 [nM] | SMILES
1 | 21 | COC(=O)N1CC=C(c2cc(N3CCC[C@@H](NC(=O)c4[nH]c5ccccc5c4OCCN(C)C)C3)c3c(N)ncnn23)C1 [Example 365, Methyl (R)-3-(4-amino-5-(3-(3-(2-(dimethylamino)ethoxy)-1H-indole-2-carboxamido)piperidin-1-yl)pyrrolo [2,1-f][1,2,4]triazin-7-yl)-2,5-dihydro-1H-pyrrole-1-carboxylate]
2 | 188 | Cc1ccc(C(=O)N[C@@H]2CCCN(c3c(Br)c(-c4ccc(S(C)(=O)=O)cc4)n4ncnc(N)c34)C2)s1 [Example 194, N-[(3R)-1-[4-amino-6-bromo-7-(4-methanesulfonylphenyl)pyrrolo[2,1-f][1,2,4]triazin-5-yl]piperidin-3-yl]-5-methylthiophene-2-carboxamide]
3 | 14 | COC(=O)N1CC=C(c2cc(N3CCC[C@@H](NC(=O)c4sc(Cl)cc4OCCN4CC5(COC5)C4)C3)c3c(N)ncnn23)C1 [Example 289, Methyl (R)-3-(5-(3-(3-(2-(2-oxa-6-azaspiro[3.3]heptan-6-yl)ethoxy)-5-chlorothiophene-2-carboxamido)piperidin-1-yl)-4-aminopyrrolo[2,1-f][1,2,4]triazin-7-yl)-2,5-dihydro-1H-pyrrole-1-carboxylate]
4 | 15 | Nc1ncnn2c(C3=CCN(C(=O)[C@H]4CCCCN4)C3)cc(N3CCC[C@@H](NC(=O)c4ccc(Cl)s4)C3)c12 [Example 892, N-((R)-1-(4-amino-7-(1-((R)-piperidine-2-carbonyl)-2,5-dihydro-1H-pyrrol-3-y1)pyrrolo[2,1-f][1,2,4]triazin-5-yl)piperidin-3-y1)-5-chlorothiophene-2-carboxamide, TFA]
5 | 3400 | CC(C)(C)OC(=O)N[C@@H]1CCCCN(c2cc(-c3ccc(S(C)(=O)=O)cc3)n3ncnc(N)c23)C1 [Example 120, tert-butyl (R)-(1-(4-amino-7-(4-(methylsulfonyl)phenyl)pyrrolo[2,1-f][1,2,4]triazin-5-yl)azepan-3-yl)carbamate]
6 | 10 | CC(=O)N1CC=C(c2cc(N3CCC[C@@H](NC(=O)c4sc(Cl)cc4OC4CCCN(C)C4)C3)c3c(N)ncnn23)C1 (some centres unmarked) [Example 597]
7 | 6 | Nc1ncnn2c(-c3ccc4cnoc4c3)cc(N3CCC[C@@H](NC(=O)c4ccc(Cl)s4)C3)c12 [Example 871, (R)—N-(1-(4-amino-7-(benzo[d]isoxazol-6-yl)pyrrolo[2,1-f][1,2,4]triazin-5-yl)piperidin-3-yl)-5-chlorothiophene-2-carboxamide]
8 | 45 | COc1nc(C)c(C(=O)N[C@@H]2CCCN(c3cc(C4=CCN(C(C)=O)C4)n4ncnc(N)c34)C2)s1 [Example 474, (R)-N-(1-(7-(1-acetyl-2,5-dihydro-1H-pyrrol-3-yl)-4-aminopyrrolo[2,1-f][1,2,4]triazin-5-yl)piperidin-3-yl)-2-methoxy-4-methylthiazole-5-carboxamide]
9 | 9 | Cc1cc(C(=O)N[C@@H]2CCCN(c3cc(-c4ccc(S(C)(=O)=O)cc4)n4ncnc(N)c34)C2)ccn1 [Example 33, (R)-N-(1-(4-amino-7-(4-(methylsulfonyl)phenyl)pyrrolo[2,1-f][1,2,4]triazin-5-yl)piperidin-3-yl)-2-methylisonicotinamide]
10 | 16 | CN(C)CCOc1cc(Cl)sc1C(=O)N[C@@H]1CCCN(c2cc(C3=CCNC3)n3ncnc(N)c23)C1 [Example 171, (R)—N-(1-(4-amino-7-(2,5-dihydro-1H-pyrrol-3-yl)pyrrolo[2,1-f][1,2,4]triazin-5-yl)piperidin-3-yl)-5-chloro-3-(2-(dimethylamino)ethoxy)thiophene-2-carboxamide, 3 TFA]
11 | 12 | Nc1ncnn2c(-c3cc(F)c(O)c(F)c3)cc(N3CCC[C@@H](NC(=O)c4ccc(Cl)s4)C3)c12 [Example 206, (R)-N-(1-(4-amino-7-(3,5-difluoro-4-hydroxyphenyl)pyrrolo [2,1-f][1,2,4]triazin-5-yl)piperidin-3-yl)-5-chlorothiophene-2-carboxamide]
12 | 7 | Nc1ncnn2c(-c3ccnc(F)c3)cc(N3CCC[C@@H](NC(=O)c4ccc(C(F)(F)F)s4)C3)c12 [Example 154, (R)-N-(1-(4-amino-7-(2-fluoropyridin-4-yl)pyrrolo[2,1-f][1,2,4]triazin-5-yl)piperidin-3-yl)-5-(trifluoromethyl)thiophene-2-carboxamide, TFA]
13 | 5 | CN(C)CCOc1cc(C(F)F)sc1C(=O)N[C@@H]1CCCN(c2cc(-c3ccnc(C(F)F)c3)n3ncnc(N)c23)C1 [Example 343, (R)—N-(1-(4-amino-7-(2-(difluoromethyl)pyridin-4-yl)pyrrolo[2,1-f][1,2,4]triazin-5-yl)piperidin-3-yl)-5-(difluoromethyl)-3-(2-(dimethylamino)ethoxy)thiophene-2-carboxamide]
14 | 1750 | CC(C)(C)OC(=O)N[C@@H]1CCCN(c2cc(-c3ccc(S(C)(=O)=O)cc3)n3ncnc(N)c23)C1 [Example 11, tert-butyl (R)-(1-(4-amino-7-(4-(methylsulfonyl)phenyl)pyrrolo[2,1-f][1,2,4]triazin-5-yl)piperidin-3-yl)carbamate]
15 | 5 | CC(=O)N1CC=C(c2cc(N3CCC[C@@H](NC(=O)c4ccc(-c5ccnc(C(F)F)c5)s4)C3)c3c(N)ncnn23)C1 [Example 541, (R)—N-(1-(7-(1-acetyl-2,5-dihydro-1H-pyrrol-3-yl)-4-aminopyrrolo[2,1-f][1,2,4]triazin-5-yl)piperidin-3-yl)-5-(2-(difluoromethyl)pyridin-4-yl)thiophene-2-carboxamide]
16 | 284 | CS(=O)(=O)c1ccc(-c2cc(N3CC[C@@H]4C[C@]4(NC(=O)c4ccc(Cl)s4)C3)c3c(N)ncnn23)cc1 (relative stereo) [Example 165, rel-N-((1R,6R)-3-(4-amino-7-(4-(methylsulfonyl)phenyl)pyrrolo[2,1-f][1,2,4]triazin-5-yl)-3-azabicyclo[4.1.0]heptan-1-yl)-5-chlorothiophene-2-carboxamide, TFA]
17 | 32 | CC(C)c1cccc(C(=O)N[C@@H]2CCCN(c3cc(-c4ccc(S(C)(=O)=O)cc4)n4ncnc(N)c34)C2)c1 [Example 81, (R)-N-(1-(4-amino-7-(4-(methylsulfonyl)phenyl)pyrrolo[2,1-f][1,2,4]triazin-5-yl)piperidin-3-yl)-3-isopropylbenzamide]
18 | 11 | COCCNC(=O)c1ccc(-c2cc(N3CCC[C@@H](NC(=O)c4ccc(Cl)s4)C3)c3c(N)ncnn23)cc1 [Example 224, (R)-N-(1-(4-amino-7-(4-((2-methoxyethyl)carbamoyl)phenyl)pyrrolo[2,1-f][1,2,4]triazin-5-yl)piperidin-3-yl)-5-chlorothiophene-2-carboxamide]
19 | 21 | CC(=O)N1CC=C(c2cc(N3CCC[C@@H](NC(=O)c4sc(Cl)cc4OCC4(N)CC4)C3)c3c(N)ncnn23)C1 [Example 331, (R)—N-(1-(7-(1-acetyl-2,5-dihydro-1H-pyrrol-3-yl)-4-aminopyrrolo[2,1-f][1,2,4]triazin-5-yl)piperidin-3-yl)-3-((1-aminocyclopropyl)methoxy)-5-chlorothiophene-2-carboxamide]
20 | 3 | COC(=O)N1CC=C(c2cc(N3CCC[C@@H](NC(=O)c4sc(Cl)cc4OC4CCN(C5COC5)CC4)C3)c3c(N)ncnn23)C1 [Example 572, Methyl (R)-3-(4-amino-5-(3-(5-chloro-3-((1-(oxetan-3-yl)piperidin-4-yl)oxy)thiophene-2-carboxamido)piperidin-1-yl)pyrrolo[2,1-f][1,2,4]triazin-7-yl)-2,5-dihydro-1H-pyrrole-1-carboxylate]
